Assay: CuAAC: 1,7-diethynyl PDI 8 + bis-azide, [1+1] macrocyclisation; Cu(MeCN)4PF6 0.4 eq with TBTA 0.4 eq (THPTA for 2a), N2, rt
Conditions: the molecule shown is the open-chain precursor, CH2Cl2, 0.22 mM, 25.0 °C

C#Cc1cc2c3c(ccc4c5c(-c6cn(CCCCCCCCOc7ccc8ccccc8c7-c7c(OCCCCCCCCN=[N+]=[N-])ccc8ccccc78)nn6)cc6c7c(ccc(c1c34)c75)C(=O)N(c1c(C(C)C)cccc1C(C)C)C6=O)C(=O)N(c1c(C(C)C)cccc1C(C)C)C2=O
ring closure, isolated yield (34-membered ring, 96.0 h): 33%

C#Cc1cc2c3c(ccc4c5c(-c6cn(CCCCCCOc7ccc8ccccc8c7-c7c(OCCCCCCN=[N+]=[N-])ccc8ccccc78)nn6)cc6c7c(ccc(c1c34)c75)C(=O)N(c1c(C(C)C)cccc1C(C)C)C6=O)C(=O)N(c1c(C(C)C)cccc1C(C)C)C2=O
ring closure, isolated yield (30-membered ring, 96.0 h): 53%

C#Cc1cc2c3c(ccc4c5c(-c6cn(CCCCOc7ccc(OCCCCN=[N+]=[N-])cc7)nn6)cc6c7c(ccc(c1c34)c75)C(=O)N(c1c(C(C)C)cccc1C(C)C)C6=O)C(=O)N(c1c(C(C)C)cccc1C(C)C)C2=O [1a (hydroquinone, n=4)]
ring closure, isolated yield (26-membered ring, 96.0 h): 24%

C#Cc1cc2c3c(ccc4c5c(-c6cn(CCCCCCOc7ccc(OCCCCCCN=[N+]=[N-])cc7)nn6)cc6c7c(ccc(c1c34)c75)C(=O)N(c1c(C(C)C)cccc1C(C)C)C6=O)C(=O)N(c1c(C(C)C)cccc1C(C)C)C2=O [1b (hydroquinone, n=6)]
ring closure, isolated yield (30-membered ring, 96.0 h): 23%

C#Cc1cc2c3c(ccc4c5c(-c6cn(CCCCOc7ccc8ccccc8c7-c7c(OCCCCN=[N+]=[N-])ccc8ccccc78)nn6)cc6c7c(ccc(c1c34)c75)C(=O)N(c1c(C(C)C)cccc1C(C)C)C6=O)C(=O)N(c1c(C(C)C)cccc1C(C)C)C2=O [2a (P-BINOL, n=4; PM 2% + PP 2%, dr 1:1)]
ring closure, isolated yield (26-membered ring, 144.0 h): 4%
